Measurements as given in patent US20060110376A1, “MDA-7 and free radicals in the treatment of cancer” (priority 2002, published 2006).
Peptide text beside a SMILES is read from it. * marks the point of attachment. Cbz = O=C(OCc1ccccc1)*; CH2F = FC*

What was measured:
RT2 cells = experiment: MTT assay with kinase inhibitors; type: cell-based, rat
Protocol: Data are the means±SEM of 3 experiments # p<0.05 less than control treated cells, * p<0.05 less than corresponding value in cells not infected with Ad-mda-7. Panel C. […] Data are the means±SEM of 3 separate experiments. […] Data are the means±SEM of 3 separate experiments. […] Cells were incubated with vehicle or SP600125 (10 μM) 30 min prior to irradiation and growth determined via MTT assay 4 days after irradiation (±SEM, n=4).
The MTT test is based on the enzymatic reduction of the tetrazolium salt MTT in living, metabolically active cells. […] Twenty-four hours after infection/protein treatment, cells were treated with kinase inhibitor drugs and then irradiated. […] The plates were read on a Dynatech MR600 Microplate Reader at 540 nm. All data were normalized relative to the control, non-treated unirradiated cells of the corresponding cell type.

[1] = tested on: prostate carcinoma cell lines (DU-145, PC-3, LNCaP); experiment: MTT viability assay; type: cell-based, human
Protocol: (§1) Cells were seeded in 96-well plates, pretreated with NAC (5 mM) or Tiron (1 mM) for 2 h and infected with Ad.mda-7. Forty eight hours later, viability was assessed by MTT assay. […] Cells were seeded in 96-well plates, infected with Ad.mda-7 and treated with As2O3 (10 μM) or NSC656240 (400 nM). Forty eight h later, viability was assessed by MTT assay. Panel C. […] After treatment, cells were stained using DCF-DA and analyzed using flow cytometry. […] After treatment, cells were washed and stained with Annexin V-FITC conjugate. Late apoptotic and necrotic cells were excluded using PI staining. Results are the mean of three independent experiments performed with triplicate samples±S.E.
[…] Cellular viability was assessed by MTT assay 48 h after infection (Panel A). Mitochondrial membrane potential (DiOC6(3) staining, Panel B) and apoptotic changes (Annexin V staining, Panel C) were assessed 18 h (LNCaP cells) and 24 h (DU-145, PC-3 and P69 cells) after infection.
MTT Viability Assays. This method was performed as described (Lebedeva et al., 2000, Cancer Research 60:6052-6060). […] At the indicated time points, medium was removed, and fresh medium containing 0.5 mg/ml MTT was added to each well. The cells were incubated at 37° C. for 4 h and then an equal volume of solubilization solution (0.01N HCl in 10% SDS) was added to each well and mixed thoroughly. The optical density from the plates was read on a BioRad Microplate Reader Model 550 at 595 nm.

[2] = tested on: prostate cancer cell lines (DU-145, PC-3, LNCaP); experiment: Mitochondrial ΔΨm (DiOC6(3)) and ROS time course; type: cell-based, human; conditions: CsA, BA pretreatment; 18 h (LNCaP), 24 h (DU-145, PC-3)
Protocol: (§2) FIG. 33A-C. […] Prostate cancer and normal immortalized P69 cells were pretreated with inhibitors of MPT CsA (100 nM) or BA (50 μM), with the enhancer of MPT PK11195 (50 μM) or with the pan-caspase inhibitor z-VAD.fmk (50 μM) for 2 h following infection with Ad.vec or Ad.mda-7. Cellular viability was assessed by MTT assay 48 h after infection (Panel A). Mitochondrial membrane potential (DiOC6(3) staining, Panel B) and apoptotic changes (Annexin V staining, Panel C) were assessed 18 h (LNCaP cells) and 24 h (DU-145, PC-3 and P69 cells) after infection.

prostate carcinoma cells = experiment: ROS production (DCF fluorescence, flow cytometry); type: cell-based, human; conditions: treated with NSC656240 or As2O3
Protocol: as §1

[3] = tested on: pancreatic carcinoma cells; experiment: MTT viability assay; type: cell-based, human; conditions: Ad.mda-7 100 p.f.u./cell
Protocol: (§3) MTT Viability Assays. Cell viability was assessed by MTT assays as described (Lebedeva et al., 2000, Cancer Research 60:6052-6060). Briefly, cells were seeded in 96-well tissue culture plates (1.5×10^3 cells per well) and treated with various agents. At the indicated times, medium was removed, and fresh medium containing 0.5 mg/ml MTT was added to each well. The cells were incubated at 37° C. for 4 h and then an equal volume of solubilization solution (0.01N HCl in 10% SDS) was added to each well and mixed thoroughly. The optical density from the plates was read on a BioRad Microplate Reader Model 550 at 595 nm.

[4] = tested on: normal cells (immortalized human astrocytes or melanocytes); experiment: MTT viability assay; type: cell-based; conditions: Ad.mda-7 100 p.f.u./cell
Protocol: as §3

[5] = tested on: pancreatic carcinoma cells; experiment: Apoptosis (annexin V exposure, hypodiploid A0 cells); type: cell-based, human; conditions: annexin V exposure and A0 population
From the text: FIG. 39. Combined treatment of pancreatic carcinoma cells by NSC656240 and Ad.mda-7 increases levels of annexin V in pancreatic cancer cells irrespective of K-ras status.
FIG. 40. NAC administration prevents the apoptosis of pancreatic cancer cells induced by treatment of pancreatic carcinoma cells by NSC656240 or Ar2O3 and Ad.mda-7.
FIG. 41. Combined treatment of pancreatic carcinoma cells by NSC656240 or Ar2O3 and Ad.mda-7 causes apoptosis irrespective of K-ras status.
Annexin V Binding Assays. Cells were trypsinized, washed once with complete medium and stained with FITC-labeled Annexin-V (kit from Oncogene Research Products, Boston, Mass.) according to the manufacturer's instructions. Flow cytometry was performed immediately after staining.
Cell Cycle Analysis. Cells were trypsinized, washed 2× with PBS and fixed in 70% ethanol overnight at −20° C. Then cells were washed 2 times with PBS, and aliquots of 1×10^6 cells were resuspended in 1 ml of PBS containing 1 mg/ml of RNase A and 0.5 mg/ml of propidium iodide. After 30 min incubation, cells were analyzed by flow cytometry using a FACScan flow cytometer (Becton Dickinson, San Jose, Calif.).

[6] = tested on: pancreatic cancer cell lines; experiment: Western blotting of K-ras and MDA-7 protein; type: cell-based, human
From the text: FIG. 43. MDA-7 expression in pancreatic cancer cell lines in the presence or absence of Ad.mda-7, Ad.K-rasAS, or NSC656243. The presence of MDA-7 in mutant K-ras cell lines requires expression of both mda-7 and the antisense K-ras construct, and is potentiated by NSC656243.
FIG. 45. The MDA-7 expression observed in the PANC-1 or BxPC-3 cell lines following administration of Ad.mda-7 in combination with either NSC656240 or Ar2O3 is abrogated by NAC administration.
Preparation of Cell Extracts and Western Blotting Analysis. Cells were washed 2× with cold PBS and lysed on ice for 30 min in […] of cold RIPA buffer [50 mM Tris-HCl (pH 8.0), 150 mM NaCl, 0.1% SDS, 1% NP40, and 0.5% sodium deoxycholate] with freshly added 0.1 mg/ml phenylmethylsulfonyl fluoride, 1 mM sodium orthovanadate, and 1 mg/ml aprotinin. After cell debris were removed by centrifugation at 14,000 g for 10 min at 4° C., protein concentrations were determined using the Bio-Rad protein assay system (Bio-Rad Laboratories, Richmond, Calif.). Aliquots of cell extracts containing […] of total protein were resolved in 12% SDS-PAGE and transferred to Immobilon-P PVDF membranes (Millipore Corp., Bedford, Mass.). Filters were blocked for 1 h at room temperature in Blotto A [5% nonfat milk powder in TBS-T: 10 mM Tris-HCl (pH 8.0), 150 mM NaCl, 0.05% Tween 20], and then incubated for 1 h at room temperature in Blotto A containing a 1:1000 dilution of rabbit anti MDA-7 polyclonal antibody. After washing in TBS-T buffer (3×5 min, RT), filters were incubated for 1 h at room temperature in Blotto A containing a 1:10,000 dilution of peroxidase conjugated anti-rabbit secondary antibody (Amersham, Arlington Heights, Ill.). After washing in TBS-T, ECL was performed according to the manufacturer's recommendation.

[7] = tested on: pancreatic carcinoma cells; experiment: ROS production (flow cytometry); type: cell-based, human
Protocol: FIG. 46. Combined treatment by NSC656240 or Ar2O3 and Ad.mda-7 causes overproduction of ROS in pancreatic carcinoma cells.
Assessment of ROS Production. To determine ROS production, cells were stained with 2.5 μM HE or 5 μM DCFH-DA in PBS for 30 min at 37° C. in the dark. Immediately after staining, cells were analyzed by flow cytometry (FACSscan, Becton-Dickinson, Mountain View, Calif.), and data were analyzed using CellQuest software, version 3.1 (Becton Dickinson). For inhibition experiments, NAC (Sigma) was added 2 h prior to infection with Ad.mda-7. In all cases, cells were gated to exclude cell debris.

[8] = tested on: pancreatic cancer cells stably transformed to express MDA-7; experiment: Apoptosis and cell death in cells stably expressing MDA-7; type: cell-based, human
From the text: FIG. 49. Induction of apoptosis in pancreatic cancer cell lines (PANC-1) stably expressing MDA-7.
FIG. 50. Induction of apoptosis in pancreatic cancer cell lines (Mia PaCa-2) stably expressing MDA-7.
FIG. 51. Induction of apoptosis in pancreatic cancer cell lines (FM516 or BxPC-3) stably expressing MDA-7.

SKOV3 cells = experiment: MTT assay with 4-HPR; type: cell-based, human; conditions: 500 nM 4-HPR; MTT 96 h
Protocol: FIG. 35. Effect of transduction by Ad.mda-7 on the growth of the ovarian cancer cell line SKOV3 in the presence or absence of N-(4-hydroxyphenyl) retinamide (4-HPR).
SKOV3 cells (ATCC, Manassas Va.) were plated at 10,000 per well in 24 well plates. 24 h after plating cells were infected with either control virus or Ad.mda-7 virus at increasing multiplicities of viral infection. 24 h after infection, cells were treated with 500 nM 4-HPR. 96 h after 4-HPR addition, cell numbers were determined using MTT assays as described above.

[9] = tested on: normal immortal P69 prostate epithelial cells; experiment: MTT viability assay; type: cell-based, human; conditions: PK11195 50 μM
Protocol: as §1, §2
MTT Viability Assays. […] The optical density from the plates was read on a BioRad Microplate Reader Model 550 at 595 nm.

In the case of `COc1cccc(-c2cc(=O)c3ccccc3o2)c1N` [PD98059], the “effect of combined MEK1/2 and PI3K inhibition on proliferation of Ad.mda-7 infected cells” value (RT2 cells; 10 μm PD98059 + 5 μm LY294002) is reported as “significant additional reduction in proliferation” and the “effect of single kinase inhibitor on anti-proliferative effects of Ad.mda-7” value (RT2 cells; 10 μm PD98059 or 5 μm LY294002) is reported as “neither MEK1/2 nor PI3K enhanced the anti-proliferative effects”.
In the case of `CO[C@H](C/C=C\C=C\CC/C=C/C[C@H](C)/C=C/C(=C\C(=O)O)CC(=O)O)/C(C)=C\C=C(/C)C(=O)O` [BA, bongkrekic acid], the “effect of MPT inhibitor on cell death of Ad.mda-7-infected cells” value ([1]; CsA (200 nM), BA (50 μM) pretreatment 2 h) is reported as “prevented cell death” and the “effect on Ad.mda-7-induced decline in ΔΨm” value [2] is reported as “abrogated the decline in ΔΨm”.
In the case of `O=C1c2ccsc2C(=O)c2sc(CO)cc21` [NSC656240], the “effect of ROS-producing agent on cell death of Ad.mda-7-infected cells” value ([1]; As2O3 10 μM, NSC656240 400 nM, 48 h) is reported as “potentiated cell death”, the ROS levels (prostate carcinoma cells) is reported as “ROS levels increased proportionally” and the “cell death, combinational treatment with Ad.mda-7” value [3] is reported as “caused death of these cells irrespective of their K-ras status”. The “growth, combinational treatment with Ad.mda-7” value [4] was “does not affect growth of normal cells”, the “apoptosis, combination treatment with Ad.mda-7” value [5] was “caused apoptosis in pancreatic carcinoma cells independently of their K-ras status” and the K-ras protein expression ([6]; alone or in combination with Ad.mda-7) was “does not down-regulate K-ras protein expression”. For the same molecule, the “MDA-7 protein expression and secretion, combined treatment with Ad.mda-7” value ([6]; wt and mutated K-ras pancreatic cancer cell lines) was “leads to MDA-7 protein expression and secretion”, the “ROS production, combined treatment with Ad.mda-7” value [7] was “Caused ROS overproduction” and the “apoptosis and cell death” value [8] was “caused apoptosis and cell death”.
With `CC1=C(/C=C/C(C)=C/C=C/C(C)=C/C(=O)Nc2ccc(O)cc2)C(C)(C)CCC1` [4-HPR, N-(4-hydroxyphenyl) retinamide] the “effect of 4-HPR on toxic effects of MDA-7 expression” value (SKOV3 cells) was “potentiated the toxic effects of MDA-7 expression”.
In the case of `O=S(=O)(O)c1cc(O)c(O)c(S(=O)(=O)O)c1` [Tiron], the “effect of antioxidant on cell death promoting activity of Ad.mda-7” value ([1]; NAC 5 mM, Tiron 1 mM, 48 h) is reported as “abrogated”.
`COC(=O)C[C@H](NC(=O)[C@H](C)NC(=O)[C@@H](NC(=O)OCc1ccccc1)C(C)C)C(=O)CF` [z-VAD.fmk] (Cbz-Val-Ala-Asp(OMe)-CH2F) was tested, and the “effect of z-VAD.fmk on cell death” value ([1]; z-VAD.fmk 50 μM) was “inhibited cell death”.
`CCC(C)N(C)C(=O)c1cc2ccccc2c(-c2ccccc2Cl)n1` (stereo not drawn) [PK11195] was tested, and the “effect of PK11195 on Ad.mda-7-induced killing” value ([1]; PK11195 50 μM) was “enhanced Ad.mda-7-induced killing” and the “effect of PK11195 on MPT, annexin V staining and killing” value [9] was “without inducing any of these changes in P69 cells”.
